The text below walks through data of patent EP0866656B1, “USE OF N-SUBSTITUTED PYRIDONES AS TUMOR NECROSIS FACTOR ALPHA INHIBITORS” (MARGOLIN, Solomon B., priority 1995, dated 1997).

Where “and” joins values, the source holds several entries; their conditions need not be identical. Equal values may be shown once.

For one data set, the system named is WEHI 164 cells. Briefly: Inhibition of synthesis and/or release of TNF-α from WEHI 164 cells. The format is cell-based. Conditions: in vitro, 33-900 micrograms/milliliter. The text has this: (§1) In vitro, pirfenidone at concentrations of 33-900 micrograms/milliliter inhibited the synthesis and/or release of excessive and pathophysiologic amounts of TNF-α from WEHI 164 cells (Table 1, page 40). […]
(§2) The ability of pirfenidone and related compounds to block the synthesis and the release of TNF-α from macrophages, as well as other cells, was bioassayed by the method of Morgan, Mills, D.L. Lefkowitz, and S.S. Lefkowitz ("An Improved Colorimetric Assay for Tumor Necrosis Factor Using […] Cells Cultured on Novel Microtiter Plates," Jour. Immunol. Method., 145:259-262, 1991).

Data set [1] relates to TNF-α. The data set can be described thus: Endotoxin [LPS] shock in animals (Example III). Conditions: i.p. dosages of 30-400 milligrams per kilogram of body weight. It is filed as in vivo.
Data set [2] concerns TNF-α. The data set can be described thus: In vivo induction of circulating (serum) TNF-α by LPS in mice. How it is done: This model is a modification of that previously described for the in vivo induction of circulating TNF-α, (Haranaka et al., Cancer Immunol. Immunother, 18:87-90,1984).
The bioassays for TNF-α were confirmed in monitoring tests by using a modification of the basic sandwich ELISA method (Winston et al., "Current Protocols in Molecular Biology," page 11.2.1, Ausubel et al., Ed. 1987.) All other plasma levels of TNF were measured using a modification of the basic sandwich ELISA method (Winston et al., "Current Protocols in Molecular Biology," Pg. 11.2.1, Ausubel et al., Ed. 1987.).
The LPS was injected intravenously into the mice at a dosage of 2.5 micrograms (in a volume of […] from a stock solution of 100 micrograms per […]) per mouse, and the Pirfenidone was administered immediately thereafter. The mice were then bled by cardiac puncture 90 minutes later. Subsequently, the serum was analyzed for TNF-α by a ELISA kit (Endogen).

A further data set has as its system macrophages. Briefly: Toxicity to macrophages in culture. It is filed as cell-based, murine. Conditions: 0.9 mg/ml. The source says: (§3) The reduction was directly related to the concentration of pirfenidone in the culture media.
Data set [3] deals with WEHI neoplastic fibroblast cells. Briefly: Killing of WEHI neoplastic fibroblast cells by TNF-α. Conditions: in vitro, 33 to 300 micrograms/milliliter. It is filed as cell-based.
Description: as §1

Data set [4] deals with TNF-α. Briefly: TNF induction by macrophages exposed to LPS (TNF bioassay of culture medium). Conditions: for TNF induction by macrophages exposed to LPS, Mean +/- S.E.: mean of experiments 1-6. The format is cell-based, murine.
Description: as §3, §2

The test system of data set [5] is TNF-α. Briefly: TNF-α synthesis within lysed macrophages, ELISA (Example II). It is filed as cell-based, murine. Conditions: 60 minutes. Here is the method: In order to determine the direct impact of graded concentrations of pirfenidone upon the synthesis of TNF-α within the cytoplasm of murine macrophages, cell cultures of macrophages, grown in appropriate culture media, were treated with the respective concentrations pirfenidone for 60 minutes: (1) without exposure to LPS (controls) and (2) exposure to 1.0 pg/ml of LPS (E. coli.). Promptly after an exposure for 60 minutes, (a) the macrophages were separated from the culture medium by centrifugation, and (b) the macrophages were lysed. Subsequently, the lysed contents (cell cytoplasm and nucleus) from the macrophage cells were assayed via ELISA for TNF-α levels.

A short description of data set [6]: Diffusion capacity of the lungs (serial DLCO) in patients with pulmonary dysfunction. The format is in vivo. Conditions: oral, preliminary tests.
Data set [7] is described as follows: Lethality caused by LPS plus D-galactosamine in mice (Example IV). It is filed as in vivo.
A further data set deals with mouse T cells. Conditions: cited from earlier work; for inhibition of T cell activation (proliferation and IL-2 secretion): anti-CD3 antibody.
Data set [8] deals with TNF-α. Conditions: cited from earlier work.
The subject of data set [9] is TNF-α. Conditions: oral dosing, serum TNF-α; cited from earlier work.
A further data set has as its system human T cells. Conditions: cited from earlier work; for inhibition of T cell activation (proliferation and IL-2 secretion): anti-CD3 antibody.
A further data set has as its system THP-1 cells. Conditions: LPS-activated THP-1 cells; read-out: 1C50S, inhibition of TNF-α secretion; cited from earlier work.

In general, mortality refers to the share of the test organisms that died.

For the compound `Cc1ccc(=O)n(-c2ccccc2)c1` [pirfenidone, 5-Methyl-1-phenyl-2-(1H)-pyridone], the “synthesis and/or release of excessive and pathophysiologic amounts of TNF-α from WEHI 164 cells” value in the data set on WEHI 164 cells is recorded as “inhibited”. The “pathophysiological toxic effects of TNF-α (endotoxin [LPS] shock)” value with TNF-α [1] is “inhibited or completely blocked”. The “inhibition of the rise in TNF-α serum levels as compared to Control Group” value with TNF-α [2] (LPS 2.5 micrograms i.v. per mouse, bled 90 minutes later) came to 50%. In addition, the “formation and release of TNF-α into the circulation” value in the data set with TNF-α [2] (mice, 200 milligrams per kilogram intraperitoneal or greater, maintained for hours) was “complete blockage”. For the same compound, the “efficacy when given orally (rise in TNF-α serum levels)” value in the data set on TNF-α [2] (oral, same dosages) was “effective in the same dosages”. In the data set with macrophages, the toxicity with macrophages result is recorded as “No toxicity was apparent”. The “killing of WEHI neoplastic fibroblast cells by TNF-α” value in [3] was “did not inhibit”. Further, the “TNF induction by macrophages exposed to LPS, Mean +/- S.E.” value in the data set on TNF-α [4] (Pirfenidone 100 micrograms/ml) is recorded as 144+/-29 Relative TNF Units; in the data set with TNF-α [4] (Pirfenidone 300 micrograms/ml) it was 84+/-31 Relative TNF Units; with TNF-α [4] (Pirfenidone 900 micrograms/ml), 43+/-18 Relative TNF Units. Further, the “TNF induction by macrophages exposed to LPS” value is 109 Relative TNF Units and 87 Relative TNF Units in the data set with TNF-α [4] (Pirfenidone 100 micrograms/ml, pre-incubation 0 hours); 209 Relative TNF Units with TNF-α [4] (Pirfenidone 100 micrograms/ml, pre-incubation 24 hours); 143 Relative TNF Units in the data set on TNF-α [4] (Pirfenidone 300 micrograms/ml, pre-incubation 24 hours); 111 Relative TNF Units in the data set on TNF-α [4] (Pirfenidone 900 micrograms/ml, pre-incubation 24 hours). Also, the “level of TNF-α secreted into the culture medium” value in the data set on TNF-α [4] (thioglycollate-induced murine peritoneal macrophages exposed to LPS, P<0.01) is “markedly reduced level”. In addition, the “LPS induced rise in TNF-α synthesis within cytoplasm and nucleus of macrophages” value with TNF-α [5] (LPS (E. coli.) 1.0 pg/ml, concentration related, P< 0.01) is recorded as “inhibition”. The “levels of TNF-α within the cytoplasm of the macrophages” value with TNF-α [5] (controls, no exposure to LPS, 0.9 mg/ml) is recorded as “only baseline levels were found”. In [6], the “diffusion capacity of the lungs as measured by serial DLCO determinations” value was “marked, rapid and consistent improvement”. Also, the “serum levels of TNF-α in the surviving mice” value in [7] (300 mg/kg i.p. 30 minutes prior to LPS plus D-galactosamine) is “approached normal baseline levels”. For the same compound, the mortality in [7] (300 mg/kg i.p. 30 minutes prior to i.v. LPS plus 600mg/kg i.p. D-galactosamine, observed 2 days, 100.0% without pirfenidone) amounted to 10.0%.

As for `OCc1cc(C(O)CNCCCCCCOCCCCc2ccccc2)ccc1O` (stereo not shown) [salmeterol], in the data set with mouse T cells, the “inhibition of T cell activation (proliferation and IL-2 secretion)” value (“inhibition of T cell activation” below) is listed as “able to inhibit”; the “T cell inhibition, fold less potent than that for TNF-α production” value is reported as “about 10 fold”. Also, the “inhibition of serum TNF-α levels” value with TNF-α [8] (LPS/galactosamine endotoxic shock) was “up to 94%”. In addition, the “animals protected from the lethal effects of the LPS/galactosamine mixture” value in the data set with TNF-α [8] (in vivo) was “less than 50%”. Besides, the duration of efficacy in the data set with TNF-α [9] is listed as 3 h. In the data set on human T cells, the “inhibition of T cell activation” value is “able to inhibit”; the “T cell inhibition, fold less potent than that for TNF-α production” value is reported as “about 10 fold”. In addition, the IC50 in the data set on THP-1 cells is roughly 100 nM.

`CC(C)(C)NCC(O)c1ccc(O)c(CO)c1` (stereo not shown) [albuterol]: the “inhibition of T cell activation” value in the data set with mouse T cells and with human T cells was “completely inactive” each time. Moreover, the duration of efficacy result in the data set on TNF-α [9] is listed as “much shorter duration of action”.
